Measured values as given in the NIST ThermoML archive (doi:10.1021/je901043q).

Assay: xn = mol fraction of the nth substance listed
Details: 101 kPa, Liquid

CCCCn1cc[n+](C)c1.N#C[S-] [1-butyl-3-methylimidazolium thiocyanate] + CCCCCCCCO
Details	mass density [kg/m3]	viscosity [mPa·s]
298.15 K, x1 = 0.0874	847.17	9.062
298.15 K, x1 = 0.1352	860.64	10.03
298.15 K, x1 = 0.2208	884.32	12.08
298.15 K, x1 = 0.3599	921.24	16.3
298.15 K, x1 = 0.4693	949.07	20.44
298.15 K, x1 = 0.5739	974.82	24.86
298.15 K, x1 = 0.675	998.86	29.44
298.15 K, x1 = 0.7673	1020.12	–
298.15 K, x1 = 0.8721	1043.42	39.69
298.15 K, x1 = 0.9619	1062.27	45.09
298.15 K, x1 = 1	1069.79	51.74
308.15 K, x1 = 0.0874	840.37	6.504
308.15 K, x1 = 0.1352	853.92	7.237
308.15 K, x1 = 0.2208	877.72	8.726
308.15 K, x1 = 0.3599	914.82	11.7
308.15 K, x1 = 0.4693	942.78	14.47
308.15 K, x1 = 0.5739	968.64	17.39
308.15 K, x1 = 0.675	992.79	20.38
308.15 K, x1 = 0.7673	1014.13	–
308.15 K, x1 = 0.8721	1037.47	26.63
308.15 K, x1 = 0.9619	1056.33	29.99
308.15 K, x1 = 1	1063.89	34.87
318.15 K, x1 = 0.0874	833.52	4.842
318.15 K, x1 = 0.1352	847.19	5.396
318.15 K, x1 = 0.2208	871.11	6.516
318.15 K, x1 = 0.3599	908.42	8.719
318.15 K, x1 = 0.4693	936.52	10.67
318.15 K, x1 = 0.5739	962.5	12.72
318.15 K, x1 = 0.675	986.77	14.79
318.15 K, x1 = 0.7673	1008.17	–
318.15 K, x1 = 0.8721	1031.58	18.95
318.15 K, x1 = 0.9619	1050.45	21.14
318.15 K, x1 = 1	1058.02	24.19
328.15 K, x1 = 0.0874	826.65	3.691
328.15 K, x1 = 0.1352	840.37	4.158
328.15 K, x1 = 0.2208	864.48	5.003
328.15 K, x1 = 0.3599	902.01	6.654
328.15 K, x1 = 0.4693	930.28	8.141
328.15 K, x1 = 0.5739	956.41	9.644
328.15 K, x1 = 0.675	980.77	11.14
328.15 K, x1 = 0.7673	1002.28	–
328.15 K, x1 = 0.8721	1025.72	14.06
328.15 K, x1 = 0.9619	1044.62	15.59
328.15 K, x1 = 1	1052.19	16.7
338.15 K, x1 = 0.0874	819.63	2.884
338.15 K, x1 = 0.1352	833.53	3.272
338.15 K, x1 = 0.2208	857.82	3.928
338.15 K, x1 = 0.3599	895.62	5.233
338.15 K, x1 = 0.4693	924.05	6.379
338.15 K, x1 = 0.5739	950.33	7.509
338.15 K, x1 = 0.675	974.82	8.648
338.15 K, x1 = 0.7673	996.4	–
338.15 K, x1 = 0.8721	1019.88	10.82
338.15 K, x1 = 0.9619	1038.82	11.94
338.15 K, x1 = 1	1046.43	12.73
348.15 K, x1 = 0.0874	812.55	2.306
348.15 K, x1 = 0.1352	826.58	2.633
348.15 K, x1 = 0.2208	851.13	3.171
348.15 K, x1 = 0.3599	889.21	4.233
348.15 K, x1 = 0.4693	917.85	5.1
348.15 K, x1 = 0.5739	944.27	5.987
348.15 K, x1 = 0.675	968.89	6.874
348.15 K, x1 = 0.7673	990.57	–
348.15 K, x1 = 0.8721	1014.14	8.592
348.15 K, x1 = 0.9619	1033.09	9.462
348.15 K, x1 = 1	1040.7	9.98
